Non-standard residues stand in square brackets, D forms with d. Residues, ends and D or L forms follow the SMILES beside them. 2Nal = N[C@@H](Cc1ccc2ccccc2c1)C(=O)O
Assays:
[1] = test system: MN-11 cells; experiment: Extracellular HMGB1 Western blot, MN-11; type: cell-based, murine
Experimental: On the other hand, The MN-11 cells were seeded at the density of 1 × 10^5 cells/well and left to adhere for 24 hrs. Cells were treated with Nal-P-113, Bip-P-113 and Dip-P-113 at 2× IC50 for 1 and 4 hours. After treatment of the peptides, the supernatant and lysate of the cells were collected separately for further experiments. The supernatant was collected after centrifugation at the speed of 1,400 ×g. The cell lysate was washed twice using PBS before the sonication of the pellet using bio-disruptor, and the disrupted pellet was centrifuged again for 10 minutes under 14,000 rpm at 4° C. The concentration of the samples was quantified using the Bradford assay. Both supernatants and cell lysate were loaded and run on the sodium dodecyl sulfate polyacrylamide gel electrophoresis (SDS-PAGE), and then electro transferred to a polyvinylidene difluoride (PVDF) membrane (Merck-Millipore, Burlington, Massachusetts, United States) in electro-blot system, 30 V, 400 mA, for 75 mins. The membrane was incubated in blocking buffer (5% skim milk, TBST buffer) for 1 hour in room temperature and washed in TBST buffer three times. […] The secondary antibody of rabbit (diluted in 1: 10000) was incubated following the rinsing with PBST three times for 2 hours the next day in the room temperature before being developed using luminol reagent and imaged by a detected system (ImageQuant LAS 4000 mini).

[2] = test system: MN-11 cells; experiment: DCFDA cellular ROS detection, MN-11; type: cell-based, murine; conditions: MN-11, 2 × IC50, 2-hour treatment
Experimental: However, MN-11 cells were seeded at the density of 25,000 cells/well in the 96-well black plate and allowed to adhere for 24 hours. Cells were washed with a 100 µL/well of PBS to remove the RPMI 1640 medium, and incubated with 100 µL of the 25 µM DCFDA solution for 45 minutes at 37° C. in the dark condition. 100 µL/ well of PBS buffer was washed again for the removal of 25 µM DCFDA solution. The MN-11 cells were treated with Nal-P-113, Bip-P-113 and Dip-P-113 at 2× IC50 for 2 hours. Cells incubated with DMEM without phenol red was used as negative control, and the positive control was tertbutyl hydroperoxide (TBHP) diluted in the 1x Supplemented Buffer. The fluorescence intensity of cellular ROS was determined to an excitation wavelength of 485 nm and an emission wavelength of 535 nm on the Wallac VICTOR 3 Multilabel plate reader (PerkinElmer, Shelton, CT, USA).

[3] = test system: MN-11 cells; experiment: Extracellular cytochrome c ELISA, MN-11; type: cell-based, murine
Experimental: The cells were treated with 2× IC50 Nal-P-113 (FIG. 8A), Bip-P-113 (FIG. 8B), and Dip-P-113 (FIG. 8C) for 0.5, 1, 1.5, 2, and 4 h, respectively. Untreated cells were used as a control. Results are presented as mean ± SD of three independent experiments. **P<0.01; ***P<0.001 compared with control.
Not only that the amount of supernatant cytochrome c release from MN-11 cells was measured by ELISA assay to reveal peptide induced mitochondrial DAMPs. Five time points (0.5, 1, 1.5, 2 and 4 hours) were used to quantify the amount of cytochrome c released and the results were shown in FIGS. 8A-8C. Nal-P-113 (FIG. 8A) and Dip-P-113 (FIG. 8C) induced a relatively high amount of cytochrome c compared to Bip-P-113 (FIG. 8B). In the Nal-P-113 (FIG. 8A) treated group, the amount of cytochrome c release has come to a maximal value of nearly 25 ng/mL at 2 hours while the minimum value of 10 ng/mL at 30 minutes has been observed. The highest amounts of cytochrome c detected in the supernatant for Dip-P-113 (FIG. 8C) was around 35 ng/mL at 4 hours and the lower amount around 18 ng/mL at 30 minutes.

[4] = test system: MN-11 cells; experiment: Tumor re-challenge of cured animals; type: in vivo, C57BL/6 mice; conditions: n=5
Experimental: Tumor size was measured every 2 days using a caliper, and the volume of tumors was calculated using the following formula: Tumor size (mm^3) = 0.5×(width^2×length). The survival rates of tumor-bearing mice were observed and recorded

With `CC(=O)N[C@@H](C)C(=O)N[C@@H](CCCCN)C(=O)N[C@@H](CCCNC(=N)N)C(=O)N[C@@H](Cc1ccc2ccccc2c1)C(=O)N[C@@H](Cc1ccc2ccccc2c1)C(=O)NCC(=O)N[C@@H](Cc1ccc(O)cc1)C(=O)N[C@@H](CCCCN)C(=O)N[C@@H](CCCNC(=N)N)C(=O)N[C@@H](CCCCN)C(=O)N[C@@H](Cc1ccccc1)C(=O)N[C@@H](Cc1ccc2ccccc2c1)C(N)=O` [SEQ ID NO:3, Ac-AKR Nal Nal GYKRKFNal-NH2] (Ac-AKR[2Nal][2Nal]GYKRKF[2Nal]-NH2) the HMGB1 in supernatant ([1]; MN-11, 2× IC50, 1 hour) was “observed in the supernatant”, the HMGB1 in supernatant ([1]; MN-11, 2× IC50, 4 hours) was “still a significant concentration” and the “fluorescence intensity of cellular ROS (ROS production)” value [2] was “did not change”. For the same compound, the “cytochrome c release, minimum / lower amount” value ([3]; MN-11, 2× IC50, at 30 minutes) was 10 ng/mL, the “cytochrome c release, maximal value” ([3]; MN-11, 2× IC50, at 2 hours) was roughly 25 ng/mL and the “protection from MN-11 cells re-challenge” value ([4]; animals with complete regression, s.c. re-challenge) was “All animals were protected”. The survival after re-challenge ([4]; until the end of the experiments (55 days)) was “stayed alive”.
